{"source": "patent US9409983B2", "about": "“Methods and compositions involving PBEF inhibitors for lung inflammation conditions and diseases” (The Board of Trustess of the University of Illinois, priority 2009, dated 2016)", "system": "C57BL/6 mice", "assay": "Intratracheal rhPBEF instillation in spontaneously breathing mice (BAL, tissue albumin, cytokines, histology)", "type": "in vivo, mouse", "protocol": "The first VILI model was designed to produce limited lung injury (VILIa, tidal volume 30 ml/kg), thus allowing assessment of potential synergy with rhPBEF challenge. Male C57BL/6J B6 mice were anesthetized with ketamine/acepromazine, intubated and administered rhPBEF (20 μg/mouse) via an intratracheal (IT) route ˜30 min before ventilator placement (room air, tidal volume 30 ml/kg, 65 breaths/minute, 0 cm H2O PEEP) for 4 hr as previously described (Nonas et al., 2007; Moitra et al., 2007). Groups included a spontaneous breathing group (SB), a spontaneous breathing group challenged with rhPBEF (SB-rhPBEF), a high tidal ventilation group (VILIa), and a high tidal ventilation group with rhPBEF challenge (VILIa-rhPBEF) (n=4-6 all groups).\nBAL fluid recovered as we previously described was used for multiple assays including total BAL protein, and BAL cell differentials (Peng et al., 2004). Tissue albumin content was assessed as previously described (Nonas et al., 2007). Cytokine levels in BAL fluid (IL-1β, IL-6, KC, MIP2, TNF-α) were analyzed by multiplex assays (Bio-Rad, Hercules, Calif., USA). BAL PBEF levels were assayed by a C-terminal ELISA (Phoenix Pharmaceuticals Inc. Belmont, Calif.) and analyzed using the SoftmaxPRO software (Molecular Devices Corp). (See Supplemental Methods).\nWe utilized two experimental models of ventilator-induce lung injury in these experiments. Our first approach (VILIa) utilized a VILI protocol with a tidal volume of 30 ml/kg designed to produce limited lung injury in order to allow assessment of potential synergism between delivered PBEF and mechanical ventilation-induced lung injury. Male C57BL/6J mice (8-12 wk old, 24.7±2.0 g) were weighed, anesthetized with ketamine/acepromazine, intubated using a 20 gauge catheter (Medex, Inc, Carlsbad, Calif.) and administered recombinant PBEF ([…] of water) via an intratracheal (IT) route ˜30 min before being placed on mechanical ventilation as we have previously described (Peng et al., 2004). Mice were then connected to Harvard Apparatus ventilator (Boston, Mass.) at room air, tidal volume of 30 ml/kg, 65 breaths/minute, and positive expiratory pressure (PEEP) 0 cm H2O for 4 hr. Groups of mice were randomly allocated to either the spontaneous breathing group (SB) (n=4), the spontaneous breathing challenged with IT rhPBEF group (SB-rhPBEF) (n=6), the high tidal ventilation group (VILIa) (n=6), or high tidal ventilation with rhPBEF group (VILIa-rhPBEF) (n=6). Normal saline (0.2 cc) was given via intraperitoneal injection at the beginning and 2 hours later to all ventilated mice and peak inspiratory pressure was monitored continuously. Temperature was maintained with heat blanket to all mice during experiment.\nMice underwent bronchioalveolar lavage (BAL) of both lungs with Hank's balanced salt solution (1 mL/mouse), and the recovered BAL fluid was used for assays as we have previously described (Peng et al., 2004). Total protein was measured using the Bio-Rad DC Protein Assay (Bio-Rad Laboratories, Hercules, Calif.) (Peng et al., 2004). Protein results were expressed as mg/ml to allow for comparison to other studies. Lavage samples were centrifuged at 500×g on a refrigerated micro centrifuge for 20 min. The supernatant was decanted and aliquot for protein assays. The BAL cells were resuspended in Hank's balanced salt solution and counted using a hemacytometer using standard techniques.\nRe-suspended BAL cells from lung lavage were centrifuged using a Shandon Cytospin-2 at 600 RPM for 15 min, fixed by air-drying, and stained with Diff-Quik dye for differential counts (Peng et al., 2004). Stained cell slides were evaluated and differentially counted for each individual animal (lymphocyte, neutrophil or a macrophage).\nBAL fluid for cytokine measurements was stored at −80° C. until analysis. […]", "key": {"[1]": {"conditions": "spontaneously breathing mice, rhPBEF"}}, "note": "Entries after “also recorded” stand apart in the source; their conditions may differ."}
{"substance": "rhPBEF: Recombinant human soluble PBEF/visfatin, a 52 kDa protein containing 465 amino acid residues, purchased from PeproTech", "values": [{"measurement": "BAL IL-1β", "setting": "SB-rhPBEF", "result": "55 ± 22", "unit": "pg/mL"}, {"measurement": "BAL TNF-α", "setting": "SB-rhPBEF", "result": "262 ± 94", "unit": "pg/mL"}, {"measurement": "histologic assessment of lung tissue (hematoxylin and eosin)", "setting": "SB-rhPBEF, 20 μg/mouse in 30 μl saline intratracheal", "result": "mild inflammation; also recorded: macrophage & neutrophil infiltration and edematous alveolar areas"}, {"measurement": "BAL IL-6", "setting": "[1]", "result": "319 ± 67", "unit": "pg/mL"}, {"measurement": "BAL KC", "setting": "[1]", "result": "1388 ± 169", "unit": "pg/mL"}, {"measurement": "BAL MIP-2", "setting": "[1]", "result": "29026 ± 762", "unit": "pg/mL"}]}
